Measured values taken from patent US10301630B2, “Methods and compositions for unsilencing imprinted genes” (The University of North Carolina at Chapel Hill, priority 2010, dated 2019).

Legend:
cultured neurons = assay: Affymetrix GeneChip expression in cultured neurons; format: cell-based
Ube3a-YFP protein = assay: Western blot of Ube3a-YFP protein in cortical neurons; format: cell-based, mouse; details: 10 μM for 72 h
Procedure: (§1) Embryonic day 13.5 to 15.5 mice that encode the paternal Ube3a-YFP transgene or Ube3a^m−/p+ mice (i.e., AS model mice) were identified and primary cortical neuronal cultures were obtained and plated in 6 well plates. […] To assess Ube3a-YFP protein levels, 7.5 ug of total protein lysates from Ube3a-YFP neurons were separated by 8% SDS-polyacrylamide gel electrophoresis, proteins were transferred to nitrocellulose membranes and immunoblotting was performed using a rabbit anti-GFP antibody (Novus) and Alexa Fluor 680 goat anti-rabbit IgG (Invitrogen). Ube3a-YFP protein bands were visualized by a LiCOR system and to control for protein loading, Ube3a-YFP protein levels were normalized to actin level detected in each sample. To assess Ube3a protein level, immunoblotting was performed using rabbit anti-Ube3a antibody (Abeam) and Alexa Fluor 680 goat anti-rabbit IgG (Invitrogen).
(§2) E13.5-15.5 primary cortical neurons from Ube3a-YFP, Ube3a-deficient, or wild-type mice were plated in 6-well plates. At DIV7, neurons were treated with drug or 0.1% DMSO for 72 h, and then total protein lysates were obtained by lysis buffer (1% Triton X-100, 5 mM EDTA, 0.15M NaCl, 10 mM Tris-HCl, pH 7.5, phosphatase inhibitor cocktails 1, protease inhibitor cocktail). […] To control for protein loading, UBE3A-YFP or UBE3A protein levels were normalized to actin levels detected in each sample.

UBE3A protein = assay: Western blot of endogenous UBE3A protein in Ube3a m-/p+ cortical neurons; format: cell-based, mouse; details: 300 nM, 72 h
Procedure: as §1, §2

Topoisomerase I = target: T1, Topoisomerase I (Mus musculus, UniProt Q04750); assay: Topoisomerase depletion assay (free TOP1 by Western blot); format: cell-based; details: 300 nM, 72 h, cultured neurons
T1 construct: immunoblotted with an anti-Topoisomerase I antibody (Santa Cruz) to detect free Topoisomerase I; endogenous in cells; host or cells: DIV7 primary mouse cortical neurons (Ube3a m-/p+ and wild type)
T1 sequence (Q04750 1-767): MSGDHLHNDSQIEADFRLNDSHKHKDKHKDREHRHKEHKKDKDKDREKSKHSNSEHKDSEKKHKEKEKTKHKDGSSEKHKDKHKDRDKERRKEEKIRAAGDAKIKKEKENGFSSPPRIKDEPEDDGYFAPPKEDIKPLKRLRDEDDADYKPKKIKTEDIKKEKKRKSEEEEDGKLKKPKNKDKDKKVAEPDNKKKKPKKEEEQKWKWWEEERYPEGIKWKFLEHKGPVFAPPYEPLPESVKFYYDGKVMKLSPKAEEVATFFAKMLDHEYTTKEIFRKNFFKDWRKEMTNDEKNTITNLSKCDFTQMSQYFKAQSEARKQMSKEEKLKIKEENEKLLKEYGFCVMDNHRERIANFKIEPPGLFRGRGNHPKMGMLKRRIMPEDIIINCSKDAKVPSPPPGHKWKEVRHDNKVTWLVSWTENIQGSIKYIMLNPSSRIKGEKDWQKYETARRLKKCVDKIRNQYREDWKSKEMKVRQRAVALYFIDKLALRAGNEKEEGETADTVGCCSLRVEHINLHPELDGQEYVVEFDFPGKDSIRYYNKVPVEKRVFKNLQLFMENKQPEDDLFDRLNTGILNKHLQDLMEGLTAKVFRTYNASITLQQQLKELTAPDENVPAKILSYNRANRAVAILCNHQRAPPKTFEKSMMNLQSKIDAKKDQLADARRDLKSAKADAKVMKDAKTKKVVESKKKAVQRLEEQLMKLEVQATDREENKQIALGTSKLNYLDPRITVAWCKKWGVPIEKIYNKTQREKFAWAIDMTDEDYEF
Procedure: Cells were harvested and lysed on ice for 30 min in RIPA buffer (50 mM Tris-HCl, 150 mM NaCl, 1% Triton X-100, 0.5% sodium deoxycholate, 0.1% SDS, pH 7.4) to preserve topoisomerase cleavable complexes. Cell extracts were then centrifuged at 14,000 rpm at 4° C. to pellet insoluble debris. 30 μg of the cell supernatant was diluted in 2×SDS sample buffer and separated on a 7.5% SDS-PAGE gel, transferred to PVDF membrane, and immunoblotted with an anti-Topoisomerase I antibody (Santa Cruz) to detect free Topoisomerase I. An anti-β-Tubulin (Sigma) antibody was used as a loading control.

[1] = tested on: Ube3a-ATS/Snrpn promoter region; assay: Bisulfite sequencing of the Ube3a-ATS/Snrpn promoter region; format: cell-based, mouse; details: 300 nM, 72 h, cortical neurons
Procedure: Bisulfite conversion was performed on 200 ng genomic DNA using the MethylCode kit (Invitrogen). 1 μL of converted DNA was used as template for PCR. A first round of PCR was performed as described in Peery et al. using the W18 (5′-[…]) (SEQ ID NO:5) and W19 (5′-[…]) (SEQ ID NO:6) or W16 (5′-[…]) (SEQ ID NO:7) and W17 (5′-[…]) (SEQ ID NO:8) primer sets^38. A second semi-nested round of PCR was performed using 1 μL of the primary PCR reaction as template. For semi-nested PCR, the W18 primer was used with the nested W19-inside primer (5′-[…]) (SEQ ID NO:9), or the W16 primer was used with the nested W17-inside primer (5′-[…]) (SEQ ID NO:10). Products were separated on an agarose gel and extracted using the Qiaquick gel extraction kit (Qiagen). Purified DNA was ligated into the pGem-T Easy vector (Promega). Individual clones were amplified and sequenced.

In the case of `CCc1c2c(nc3ccc(OC(=O)N4CCC(N5CCCCC5)CC4)cc13)-c1cc3c(c(=O)n1C2)COC(=O)[C@]3(O)CC` [Irinotecan], the “apoptotic pathways by microarray” value (cultured neurons) is reported as “no evidence for drug-induced increases in apoptotic pathways” and the “paternal Ube3a-YFP protein level (immunoblot)” value (Ube3a-YFP protein) is reported as “significantly increases paternal Ube3a-YFP protein levels”.

With `CC[C@@]1(O)C(=O)OCc2c1cc1n(c2=O)Cc2cc3c(CN(C)C)c(O)ccc3nc2-1` [Topotecan] the “UBE3A protein level in neurons from Ube3a m−/p+ mice” value (UBE3A protein) was “restored UBE3A protein to wild-type levels”, the “amount of free (unbound) TOP1” value (Topoisomerase I) was “significantly reduce the amount of free TOP1” and the “methylation at the imprinting center” value [1] was “did not alter methylation at the imprinting center”.
